Measurements taken from US20250339051A1, “DYNAMIC CHEMICAL-EXCHANGE-SATURATION-TRANSFER (CEST) AGENT ENHANCED MRI USING DIRECT WATER SATURATION” (The Johns Hopkins University, priority 2024, published 2025).
Read-outs that look alike come from different tables or passages of the source.

Columns and labels:
brain tumor patients [1] = assay: DS-DGE MRI at 3 T in brain tumor patients with D-Glc infusion; set-up: species or system human; conditions: in vivo
Text: Four brain tumor patients were studied (one with an IDH-wildtype glioblastoma, two with a grade 2 IDH-mutated astrocytoma, and one with ALK-mutated non-small-cell lung cancer metastases). The project was approved by the local Institutional Review Board, and each participant provided written informed consent. Participants were asked to fast six hours before the study, but clear liquids were permitted. Before the start of the MRI examination, blood was drawn to verify normal baseline glucose levels (3.9-7.0 mM).
Patients were examined on a 3 T Philips Elition RX system (Philips Healthcare, Best, the Netherlands). Pre- and post-contrast enhanced T1-MPRAGE, FLAIR, DS-DGE, DCE and DSC images were acquired T1-MPRAGE: TR/TE/FA=7.5 ms/3.5 ms/8°, FOV=212×212 mm^2, resolution=1.1×1.1×2.2 mm^3, inversion time=755 ms, acquisition time=1 min 46 s, and FLAIR: TR/TE=11,000/120 ms, FOV=212×212 mm^2 resolution=1.1×1.1×2.2 mm^3, inversion time=2800 ms, acquisition time=3 min 51 s.
DS-DGE images were acquired using ten consecutive 50-ms sinc-gaussian pulses (B1peak=0.5 μTtsat=0.5 s), followed by a whole-brain simultaneous multi-slice EPI readout (multi-band factor 3). A total of 27 slices with FOV of 208×208 mm^2 and a resolution of 2.2×2.2×4.4 mm^3 were acquired using TR/TE/FA=1200 ms/17 ms/52°. 32 frequencies were acquired in 38.2 s at offsets: ±[10 (2×), 5.0, 2.5, 2.0, 1.5, 1.2, 1.0, 0.80, 0.70, 0.60, 0.50, 0.40, 0.30, 0.20, 0.10] ppm. In total 40 dynamics (Z-spectra) were acquired. Approximately five minutes into the scan (after the 8th dynamic), D-Glc was administrated intravenously with a power-injector at a rate of 6.25 g/min using hospital-grade D50 glucose (D50, Hospira Inc., Lake Forest, IL; 35 g of D-Glc in 70 mL of water sterile solution prepared by the Johns Hopkins pharmacy), followed by a saline rinse. Total experiment duration was 25.5 min.
The dynamic DS spectrum signal intensities from each voxel were normalized using the average of the second of two acquisitions at ±10 ppm and then fitted to a Lorentzian line shape using the DL-based single Lorentzian fitting neural network (sLoFNet)^43. The linewidths, defined as FWHM in the DL fitting, were used to generate LW maps (in Hz) for each dynamic. The dynamic linewidth maps were rigid motion corrected using Elastix^48 and visually inspected for remaining motion artefacts.
A baseline was calculated by averaging the linewidth maps obtained before infusion. To remove outliers, baseline LWs greater or less than the average±2SD were discarded. LWbase was then calculated by averaging the remaining baseline LWs. Dynamic ΔLW images were obtained by subtracting LWbase from each linewidth dynamic image, LW(t), followed by normalization with LWbase:
Normalized area-under-the-curve (AUC) was calculated by subtracting LWbase from the average of dynamic LWs obtained from infusion start and through the dynamic scan (LWaverage), followed by normalization with LWbase:
Normalized AUC over the infusion block alone was also calculated. Both fitting and calculations were performed in Python.

[2] = cited from earlier work
brain tumor patients [3] = conditions: cited from earlier work
[4] = cited from earlier work; remark: listed apart in the source

O=C[C@H](O)[C@@H](O)[C@H](O)[C@H](O)CO [D-glucose]
ΔLW (DS linewidth change) (brain tumor patients [1]; (ventricular) CSF, 35 g D-glucose infusion, 3 T): ~40% | ΔLW (DS linewidth change) (brain tumor patients [1]; GM/WM, 35 g D-glucose infusion, 3 T): approximately 1% | ΔLW (DS linewidth change) (brain tumor patients [1]; contrast enhanced peri-cavity infiltrative tumor region, recurrent IDH-wildtype glioblastoma patient, during infusion): approximately 15% | ΔLW (DS linewidth change) (brain tumor patients [1]; different tumor types, 35 g D-glucose infusion, 3 T): 5-20% | LW change (brain tumor patients [1]; white matter, lung cancer brain metastases patient): negligible | hydroxyl proton exchange rate ([2]; hydroxyl pool at 0.66 ppm, pH 6.8 (TUMOR EES)): 1500 Hz | hydroxyl proton exchange rate ([2]; hydroxyl pool at 0.66 ppm, pH 7.2, 37° C.): 2900 Hz | hydroxyl proton exchange rate ([2]; hydroxyl pool at 1.28 ppm, pH 6.8 (TUMOR EES)): 3100 Hz | hydroxyl proton exchange rate ([2]; hydroxyl pool at 1.28 ppm, pH 7.2, 37° C.): 6500 Hz | hydroxyl proton exchange rate ([2]; hydroxyl pool at 2.08 ppm, pH 6.8 (TUMOR EES)): 2500 Hz | hydroxyl proton exchange rate ([2]; hydroxyl pool at 2.08 ppm, pH 7.2, 37° C.): 5200 Hz | hydroxyl proton exchange rate ([2]; hydroxyl pool at 2.88 ppm, pH 6.8 (TUMOR EES)): 6000 Hz | hydroxyl proton exchange rate ([2]; hydroxyl pool at 2.88 ppm, pH 7.2, 37° C.): 14300 Hz | DGE MRI effect size (brain tumor patients [3]; contrast enhanced tumor area, LGG and HGG patients, maximum dose 20 g of D-Glc in 100 mL, Bender et al.): ≤ 0.25% | DGE MRI effect size (brain tumor patients [3]; glioblastoma, 3 T, Xu et al.): approximately 1.5% | DGE MRI effect size (brain tumor patients [3]; low and high grade glioma enhancement areas, dose of 25 g, Mo et al.): 0.5-1.5% | DGE MRI signal increase after D-Glc infusion (brain tumor patients [3]; metastases, Wu et al.): ≤ 10% | venous plasma blood glucose average increase ([4]; D-Glc dose of 25 g, N=11, previous DGE MRI study): 9.8 mM | increase in plasma blood glucose ([4]; maximum D-Glc dose of 25 g, previous DGE studies): up to 15 mM
